According to patent publication US12162850B2, “Formulations” (Betagenon AB, priority 2019, dated 2024):

Experiments:
[1] = Particle size analysis of dry-milled products (laser diffraction, Shimadzu SALD-2300); assay type: physicochemical
Procedure: Milling was performed for Examples 1a to 1c using an air jet mill (Equipment code: CP-AJM-01; Promas engineers) with the following parameters: Micronisation was repeated in all examples by performing the air jet milling for a second time using the same parameters. This allowed the particle size D90 to be reduced to less than 10 μm. [table] Four drops of Tween 20 were added to 25 mL of water and the mixture was sonicated for 3 minutes to form the dispersant solution. 0.05 g of milled material was transferred into a 250 mL glass beaker. 25 mL of the dispersant solution (Tween 20/water mixture) was added to the beaker with continuous swirling for 2 to 3 minutes. The suspension was transferred into the measuring unit and the particle size distribution measurements were conducted in triplicate.

[2] = Single dose oral pharmacokinetic studies in rabbits; assay type: in vivo, male New Zealand White rabbits; conditions: for AUCextrap / AUC(0-inf) / AUC(0-t) / Cmax / MRT last / Tmax / half-life: 90 mg/kg b.w. oral single dose
Procedure: The studies detailed below (and referred to as Examples 2 to 8) were conducted to provide comparative single dose oral pharmacokinetics data for Compound 1, as well as sodium and potassium salts of that compound, using non-coated and enteric-coated capsules in male New Zealand White rabbits.
Compound 1 was made using the process described in WO 2011/004162 and milled as described for Example 1c. The non-coated or enteric coated gelatin capsules were individually filled with 180 mg of dry-milled Compound 1 together with accompanying excipients as indicated. Both capsule types were filled with Compound 1 together with 1.8 mg of sodium docusate, 0.18 mg of PVP K30 and 9 mg of mannitol.
Similarly, Compound 2, non-coated or enteric coated gelatin capsules were individually filled with 180 mg of dry-milled Compound 2 (as obtained in Example 1f) together with 1.8 mg of sodium docusate, 0.18 mg of PVP K30 and 9 mg of mannitol.
For Compound 3, non-coated or enteric coated gelatin capsules were individually filled with 90 mg of dry-milled Compound 3 (as obtained in Example 1i) together with 0.90 mg of sodium docusate, 0.09 mg of PVP K30 and 4.50 mg of mannitol.
40 mL of the 2% w/v methyl cellulose solution was added to a 250 mL conical flask together with 10 g of 2 mm glass beads, and vigorously stirred. Compound 1 (720 mg) was slowly added to the solution and the mixture was with continuously stirred for 1 h. The homogenate was transferred to separate flask and its pH recorded. The suspension formulation was prepared before administration to the animals.
Adult healthy male New Zealand white rabbits aged approximately 2 to 3 months old were used for experimentation after 7 days of acclimatization.
To dose the filled capsules, a soft plastic dosing tube was used. The filled capsule was inserted into the dosing tube so that the short end of the capsule protrudes slightly from the tip of the tube. The tip of the capsule was dipped in mineral oil to aid swallowing.
To dose the suspension, an infant feeding tube was used. The feeding tube was inserted through the mouth of the rabbit to the oesophagus and the stomach, and ascertained that it has not been placed in the trachea before dosing to the animals. The suspension of the Compound 1 was administered through the feeding tube. After the administration of the suspension, drinking water of approximately 2.0-2.5 mL was administered to flush out the contents in the feeding tube.
The animals were restrained in a rabbit restrainer and blood samples (400-500 μL/time point) were collected via the central ear artery at 0.16, 0.25, 0.50, 1.0, 2.0, 4.0, 6.0, 8.0, 24.0, 48.0 and 72 hours post-dosing. Collected blood specimens were centrifuged at 4000 or 6000 rpm, 4° C. for 10 minutes and plasma samples were separated and stored at −80° C. until analysis.
Concentrations of the analyte of Compound 1 in New Zealand white rabbits was determined using an API 3200 Q-trap LC-MS/MS system.
Chromatographic separation was achieved on Zorbax C18, 50×4.6 mm, 5 μm column with methanol-0.1% formic acid as mobile phase with gradient elution. The flow rate was set at 1.0 mL min^−1. Detection was accomplished by a triple-quadrupole tandem mass spectrometer in multiple-reaction monitoring (MRM) scanning via electrospray ionization source, applied in the positive mode. The optimised mass transition ion-pairs for quantitation were m/z 379.999→125.000 for the compound 1 and m/z 376.165→165.00 for the ISD (Haloperidol). Calibration plots were linear over the range of 11.062 to 20594.820 ng/mL.
The data of plasma concentration to respective time points for the analyte Compound 1 were used for the pharmacokinetic analysis. Pharmacokinetic analysis was performed using non-compartmental analysis (NCA) module of Phoenix WinNonlin 6.3 software to determine the following pharmacokinetic parameters: • Cmax • Tmax • AUC0-t • AUC0-∞ • T1/2 • MRT […]

[3] = after 1st milling (air jet mill)
[4] = after 2nd milling (air jet mill)
[5] = male, New Zealand White, rabbit, plasma, po, 90 mg/kg, enteric coated capsule, 90 mg/kg b.w. oral
[6] = male, New Zealand White, rabbit, plasma, po, 90 mg/kg, non-coated capsule, 90 mg/kg b.w. oral
[7] = male, New Zealand White, rabbit, plasma, po, 90 mg/kg, standard suspension, 90 mg/kg b.w. oral
[8] = male, New Zealand White, rabbit, plasma, po, 90 mg/kg, enteric coated capsule, rabbit plasma (Examples 5, 6, 7)
[9] = male, New Zealand White, rabbit, plasma, po, 90 mg/kg, non-coated capsule, rabbit plasma (Examples 2, 3, 4)
[10] = male, New Zealand White, rabbit, plasma, po, 90 mg/kg, standard suspension (2% w/v methylcellulose), rabbit plasma (Example 8)

O=C(Nc1nc(=O)n(Cc2ccc(Cl)cc2)s1)c1ccc(Cl)cc1 [Compound 1, 4-Chloro-N-[2-[(4-chlorophenyl)methyl]-3-oxo-1,2,4-thiadiazol-5-yl]benzamide]
Particle size distribution D10 [1, 3]: 1.8 μm | Particle size distribution D50 [1, 3]: 5.0 μm | Particle size distribution D90 [1, 3]: 11.4 μm | Particle size distribution D100 [1, 3]: 33.7 μm | Particle size distribution D10 [1, 4]: 1.2 μm | Particle size distribution D50 [1, 4]: 3.7 μm | Particle size distribution D90 [1, 4]: 8.3 μm | Particle size distribution D100 [1, 4]: 21.4 μm | Particle size distribution D10 ([1]; before milling): 13.5 μm | Particle size distribution D50 ([1]; before milling): 28.0 μm | Particle size distribution D90 ([1]; before milling): 55.2 μm | Particle size distribution D100 ([1]; before milling): 187.0 μm | Plasma concentration, mean ([2]; 0.16 h, non-coated capsule, 90 mg/kg b.w. oral, rabbit): 0.000 ng/mL | Plasma concentration, mean ([2]; 0.25 h, non-coated capsule, 90 mg/kg b.w. oral, rabbit): 0.000 ng/mL | Plasma concentration, mean ([2]; 0.50 h, non-coated capsule, 90 mg/kg b.w. oral, rabbit): 50.474 ng/mL | Plasma concentration, mean ([2]; 1.00 h, enteric coated capsule, 90 mg/kg b.w. oral, rabbit): 0.000 ng/mL | Plasma concentration, mean ([2]; 1.00 h, non-coated capsule, 90 mg/kg b.w. oral, rabbit): 386.171 ng/mL | Plasma concentration, mean ([2]; 2.00 h, enteric coated capsule, 90 mg/kg b.w. oral, rabbit): 5.857 ng/mL | Plasma concentration, mean ([2]; 2.00 h, non-coated capsule, 90 mg/kg b.w. oral, rabbit): 1530.898 ng/mL | Plasma concentration, mean ([2]; 4.00 h, enteric coated capsule, 90 mg/kg b.w. oral, rabbit): 206.003 ng/mL | Plasma concentration, mean ([2]; 6.00 h, enteric coated capsule, 90 mg/kg b.w. oral, rabbit): 307.917 ng/mL | Plasma concentration, mean ([2]; 6.00 h, non-coated capsule, 90 mg/kg b.w. oral, rabbit): 25336.370 ng/mL | Plasma concentration, mean ([2]; 8.00 h, enteric coated capsule, 90 mg/kg b.w. oral, rabbit): 1505.092 ng/mL | Plasma concentration, mean ([2]; 24.00 h, enteric coated capsule, 90 mg/kg b.w. oral, rabbit): 45705.076 ng/mL | Plasma concentration, mean ([2]; 72.00 h, non-coated capsule, 90 mg/kg b.w. oral, rabbit): 35657.688 ng/mL | AUCextrap ([2]; enteric coated capsule, rabbit plasma (Examples 5, 6, 7)): 82.44 ± 9.84% | concentration at 0 h [2, 5]: 0 ng/mL | concentration at 0 h [2, 6]: 0 ng/mL | concentration at 0 h [2, 7]: 0 ng/mL | concentration at 0.16 h ([2]; male, New Zealand White, rabbit, plasma, po, 90 mg/kg, 0.16 h, enteric coated capsule, 90 mg/kg b.w. oral): 0 ng/mL | concentration at 0.16 h ([2]; male, New Zealand White, rabbit, plasma, po, 90 mg/kg, 0.16 h, standard suspension, 90 mg/kg b.w. oral): 1210 ng/mL | concentration at 0.25 h ([2]; male, New Zealand White, rabbit, plasma, po, 90 mg/kg, 0.25 h, enteric coated capsule, 90 mg/kg b.w. oral): 0 ng/mL | concentration at 0.25 h ([2]; male, New Zealand White, rabbit, plasma, po, 90 mg/kg, 0.25 h, standard suspension, 90 mg/kg b.w. oral): 4420 ng/mL | concentration at 0.5 h ([2]; male, New Zealand White, rabbit, plasma, po, 90 mg/kg, 0.50 h, enteric coated capsule, 90 mg/kg b.w. oral): 0 ng/mL | concentration at 0.5 h ([2]; male, New Zealand White, rabbit, plasma, po, 90 mg/kg, 0.50 h, standard suspension, 90 mg/kg b.w. oral): 7250 ng/mL | concentration at 1 h ([2]; male, New Zealand White, rabbit, plasma, po, 90 mg/kg, 1.00 h, standard suspension, 90 mg/kg b.w. oral): 9390 ng/mL | concentration at 2 h ([2]; male, New Zealand White, rabbit, plasma, po, 90 mg/kg, 2.00 h, standard suspension, 90 mg/kg b.w. oral): 10100 ng/mL | concentration at 4 h ([2]; male, New Zealand White, rabbit, plasma, po, 90 mg/kg, 4.00 h, non-coated capsule, 90 mg/kg b.w. oral): 13400 ng/mL | concentration at 4 h ([2]; male, New Zealand White, rabbit, plasma, po, 90 mg/kg, 4.00 h, standard suspension, 90 mg/kg b.w. oral): 11600 ng/mL | concentration at 6 h ([2]; male, New Zealand White, rabbit, plasma, po, 90 mg/kg, 6.00 h, standard suspension, 90 mg/kg b.w. oral): 139 µg/mL | concentration at 8 h ([2]; male, New Zealand White, rabbit, plasma, po, 90 mg/kg, 8.00 h, non-coated capsule, 90 mg/kg b.w. oral): 39200 ng/mL | concentration at 8 h ([2]; male, New Zealand White, rabbit, plasma, po, 90 mg/kg, 8.00 h, standard suspension, 90 mg/kg b.w. oral): 28700 ng/mL | concentration at 24 h ([2]; male, New Zealand White, rabbit, plasma, po, 90 mg/kg, 24.00 h, non-coated capsule, 90 mg/kg b.w. oral): 63600 ng/mL | concentration at 24 h ([2]; male, New Zealand White, rabbit, plasma, po, 90 mg/kg, 24.00 h, standard suspension, 90 mg/kg b.w. oral): 18400 ng/mL | concentration at 48 h [2, 5]: 59.7 µg/mL | concentration at 48 h [2, 6]: 54.8 µg/mL | concentration at 48 h [2, 7]: 8.83 µg/mL | concentration at 72 h ([2]; male, New Zealand White, rabbit, plasma, po, 90 mg/kg, 72.00 h, enteric coated capsule, 90 mg/kg b.w. oral): 52300 ng/mL | concentration at 72 h ([2]; male, New Zealand White, rabbit, plasma, po, 90 mg/kg, 72.00 h, standard suspension, 90 mg/kg b.w. oral): 3030 ng/mL | AUC(0-inf) [2, 8]: 18600 ± 12800 µg·h/mL | AUC(0-t) [2, 8]: 2990 ± 666 µg·h/mL | Cmax [2, 8]: 60.8 ± 15.7 µg/mL | MRT last [2, 8]: 45.2 ± 2.54 h | Tmax [2, 8]: 40 ± 13.9 h | half-life [2, 8]: 10.5 ± 5.54 days | AUC(0-inf) [2, 9]: 7390 ± 3870 µg·h/mL | AUC(0-t) [2, 9]: 3450 ± 405 µg·h/mL | Cmax [2, 9]: 63.7 ± 3.79 µg/mL | MRT last [2, 9]: 36.9 ± 2.56 h | Tmax [2, 9]: 32 ± 13.9 h | half-life [2, 9]: 2.84 ± 1.79 days | AUC(0-inf) [2, 10]: 1120 µg·h/mL | AUC(0-t) [2, 10]: 952 ± 175 µg·h/mL | Cmax [2, 10]: 31.2 ± 11.5 µg/mL | MRT last [2, 10]: 25 ± 5 h | Tmax [2, 10]: 19 ± 9 h | half-life [2, 10]: 1.5 ± 0.333 days | AUCextrap ([2]; non-coated capsule, rabbit plasma (Examples 2, 3, 4)): 46.71 ± 19.06% | AUCextrap ([2]; standard suspension (2% w/v methylcellulose), rabbit plasma (Example 8)): 14 ± 9%
